# Measurements as given in article PMC9116245, “New 1,2,3-triazole linked ciprofloxacin-chalcones induce DNA damage by inhibiting human topoisomerase I& II and tubulin polymerization” (Journal of Enzyme Inhibition and Medicinal Chemistry, 2022).
# How the values were obtained:
# [1] = tested on: BT-549; test: NCI one-dose screen; assay type: cell-based; settings: Homo sapiens; BT-549, 10 µM; read-out: Growth Percent
# Procedure, shortened: (§1)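 Single dose, 10 µM; 59-line human tumour panel (nine subpanels); read-out growth percent per NCI-60 standard method.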
# [2] = tested on: NCI-H460; test: NCI one-dose screen; assay type: cell-based; settings: Homo sapiens; NCI-H460, 10 µM; read-out: Growth Percent
# Procedure, shortened: as §1
# [3] = tested on: CCRF-CEM; test: NCI one-dose screen; assay type: cell-based; settings: Homo sapiens, read-out: Growth Percent
# Procedure, shortened: as §1
# [4] = tested on: K-562; test: NCI one-dose screen; assay type: cell-based; settings: Homo sapiens, K562; K-562, 10 µM; read-out: Growth Percent
# Procedure, shortened: as §1
# [5] = tested on: MDA-MB-468; test: NCI one-dose screen; assay type: cell-based; settings: Homo sapiens; MDA-MB-468, 10 µM; read-out: Growth Percent
# Procedure, shortened: as §1
# [6] = tested on: 786-0; test: NCI one-dose screen; assay type: cell-based; settings: Homo sapiens; 786-0, 10 µM; read-out: Growth Percent
# Procedure, shortened: as §1
# [7] = tested on: MALME-3M; test: NCI one-dose screen; assay type: cell-based; settings: Homo sapiens, read-out: Growth Percent
# Procedure, shortened: as §1
# [8] = tested on: MDA-MB-231/ATCC; test: NCI one-dose screen; assay type: cell-based; settings: Homo sapiens, read-out: Growth Percent
# Procedure, shortened: as §1
# [9] = tested on: HS 578T; test: NCI one-dose screen; assay type: cell-based; settings: Homo sapiens, read-out: Growth Percent
# Procedure, shortened: as §1
# [10] = tested on: IGROV1; test: NCI one-dose screen; assay type: cell-based; settings: Homo sapiens, IGROV-1; IGROV1, 10 µM; read-out: Growth Percent
# Procedure, shortened: as §1
# [11] = tested on: UACC-62; test: NCI one-dose screen; assay type: cell-based; settings: Homo sapiens; UACC-62, 10 µM; read-out: Growth Percent
# Procedure, shortened: as §1
# [12] = tested on: T-47D; test: NCI one-dose screen; assay type: cell-based; settings: Homo sapiens, T47D, read-out: Growth Percent
# Procedure, shortened: as §1
# [13] = tested on: A549/ATCC; test: NCI one-dose screen; assay type: cell-based; settings: Homo sapiens, read-out: Growth Percent
# Procedure, shortened: as §1
# [14] = tested on: SF-268; test: NCI one-dose screen; assay type: cell-based; settings: Homo sapiens; SF-268, 10 µM; read-out: Growth Percent
# Procedure, shortened: as §1
# [15] = tested on: PC-3; test: NCI one-dose screen; assay type: cell-based; settings: Homo sapiens; PC-3, 10 µM; read-out: Growth Percent
# Procedure, shortened: as §1
# [16] = tested on: HCC-2998; test: NCI one-dose screen; assay type: cell-based; settings: Homo sapiens; HCC-2998, 10 µM; read-out: Growth Percent
# Procedure, shortened: as §1
# [17] = tested on: NCI-H226; test: NCI one-dose screen; assay type: cell-based; settings: Homo sapiens; NCI-H226, 10 µM; read-out: Growth Percent
# Procedure, shortened: as §1
# [18] = tested on: NCI-H23; test: NCI one-dose screen; assay type: cell-based; settings: Homo sapiens; NCI-H23, 10 µM; read-out: Growth Percent
# Procedure, shortened: as §1
# [19] = tested on: NCI-H522; test: NCI one-dose screen; assay type: cell-based; settings: Homo sapiens; NCI-H522, 10 µM; read-out: Growth Percent
# Procedure, shortened: as §1
# [20] = tested on: COLO 205; test: NCI one-dose screen; assay type: cell-based; settings: Homo sapiens; COLO 205, 10 µM; read-out: Growth Percent
# Procedure, shortened: as §1
# [21] = tested on: SK-MEL-28; test: NCI one-dose screen; assay type: cell-based; settings: Homo sapiens; SK-MEL-28, 10 µM; read-out: Growth Percent
# Procedure, shortened: as §1
# [22] = tested on: UO-31; test: NCI one-dose screen; assay type: cell-based; settings: Homo sapiens; UO-31, 10 µM; read-out: Growth Percent
# Procedure, shortened: as §1
# [23] = tested on: MDA-MB-435; test: NCI one-dose screen; assay type: cell-based; settings: Homo sapiens; MDA-MB-435, 10 µM; read-out: Growth Percent
# Procedure, shortened: as §1
# [24] = tested on: HCT-15; test: NCI one-dose screen; assay type: cell-based; settings: Homo sapiens; HCT-15, 10 µM; read-out: Growth Percent
# Procedure, shortened: as §1
# [25] = tested on: M14; test: NCI one-dose screen; assay type: cell-based; settings: Homo sapiens; M14, 10 µM; read-out: Growth Percent
# Procedure, shortened: as §1
# [26] = tested on: U251; test: NCI one-dose screen; assay type: cell-based; settings: Homo sapiens, U-251; U251, 10 µM; read-out: Growth Percent
# Procedure, shortened: as §1
# [27] = tested on: γH2AX; test: γH2AX immunofluorescence in HCT116 cells; assay type: cell-based, human; settings: HCT116, IC50 of compound
# Description: DNA damage is a major reason for inhibiting proliferation and inducing cytotoxicity in cancer cells as well as the main downstream cascade for the Topo-I, Top-II, and tubulin polymerisation inhibition. The phosphorylation of the histone H2AX always occurs after DNA damage forming double-stranded breaks (DSBs). Therefore, we tested the capability of the potent prepared compounds to trigger DNA double strand breaks through detection of the phosphorylation of γH2AX using two different techniques, Immunofluorescence, and western blotting.
# HCT116 cells were cultured and treated with the IC50 of the potent compounds (4a, 4b, 4e, 4i, and 4j) or DMSO (control), fixed, permeabilized, and they were incubated with either γH2AX or α-tubulin antibody as the reported procedure in the literature. Confocal images were captured using a Confocal Microscope with a 63X objective. All images were processed using ImageJ software. See Supplementary Appendix A.
# [28] = tested on: 59 human cancer cell lines; test: NCI one-dose screen, whole panel; assay type: cell-based; settings: for activity at 10 µM: Homo sapiens, mean over the panel, read-out: Mean Growth Percent
# Procedure: For screening of anticancer properties, all the developed compounds were chosen by the (NCI) for in-vitro antitumor evaluation. The assay was carried out using 59 human cancer cell lines obtained from nine tumour subpanels (breast, ovarian, melanoma, leukaemia, renal, CNS, lung, prostate, and colon cancer cell lines). Compounds were assessed at a 10 µM concentration. […] Also, hybrids 4a, 4b, 4e, 4i and 4j produced significant anti-proliferative effect in several cancer cells, particularly in leukaemia (RPMI-8226) and colon (HCT116) cells with growth percent of 47.87, −14.59, −24.56, −24.42, −15.84, −9.74, −53.36, −10.26, −31.29, and −39.51%, respectively.
# The method description for NCI anticancer screening is provided in detail in the standard NCI-60 testing protocol.
Compound,activity at 10 µM [1],activity at 10 µM [2],activity at 10 µM [3],activity at 10 µM [4],activity at 10 µM [5],activity at 10 µM [6],activity at 10 µM [7],activity at 10 µM [8],activity at 10 µM [9],activity at 10 µM [10],activity at 10 µM [11],activity at 10 µM [12],activity at 10 µM [13],activity at 10 µM [14],activity at 10 µM [15],activity at 10 µM [16],activity at 10 µM [17],activity at 10 µM [18],activity at 10 µM [19],activity at 10 µM [20],further results
"COc1cc(/C=C/C(=O)c2ccc(-n3cc(CN4CCN(c5cc6c(cc5F)c(=O)c(C(=O)O)cn6C5CC5)CC4)nn3)cc2)cc(OC)c1OC [Compound 4j, (E)-1-cyclopropyl-6-fluoro-4-oxo-7–(4-((1–(4-(3-(3,4,5-trimethoxyphenyl)acryloyl)phenyl)-1H-1,2,3-triazol-4-yl)methyl)piperazin-1-yl)-1,4-dihydroquinoline-3-carboxylic acid]",51%,53.1%,3.05%,7.81%,-7.19%,43.6%,57.5%,55.4%,21.5%,-24.8%,54.1%,28.1%,15.7%,59.5%,9.95%,-39.7%,32.4%,50.6%,49.5%,60.9%,"activity at 10 µM [21]: 34.6%; activity at 10 µM [22]: 43.5%; activity at 10 µM [23]: 5.4%; activity at 10 µM [24]: 33.8%; activity at 10 µM [25]: 28.2%; activity at 10 µM [26]: 10.6%; γH2AX foci formation [27]: induced γH2AX foci formation; activity at 10 µM [28]: 33.7%; Growth Percent ([28]; majority of cancer cell lines, 10 µM): 67.46 to −39.69%"
"O=C(/C=C/c1cccc(Cl)c1)c1ccc(-n2cc(CN3CCN(c4cc5c(cc4F)c(=O)c(C(=O)O)cn5C4CC4)CC3)nn2)cc1 [Compound 4b, (E)-7-(4-((1–(4-(3-(3-chlorophenyl)acryloyl)phenyl)-1H-1,2,3-triazol-4-yl)methyl)piperazin-1-yl)-1-cyclopropyl-6-fluoro-4-oxo-1,4-dihydroquinoline-3-carboxylic acid]",90.4%,66.7%,29.9%,40.5%,64.8%,53.9%,94.5%,73.6%,73.7%,51.8%,61.2%,75.3%,71.6%,56.4%,74%,59.3%,82.1%,91.4%,83.9%,106%,activity at 10 µM [21]: 95.8%; activity at 10 µM [22]: 52.6%; activity at 10 µM [23]: 74%; activity at 10 µM [24]: 71.7%; activity at 10 µM [25]: 79%; activity at 10 µM [26]: 34.3%; γH2AX foci formation [27]: induced γH2AX foci formation; activity at 10 µM [28]: 65%
"O=C(/C=C/c1ccc(Br)cc1)c1ccc(-n2cc(CN3CCN(c4cc5c(cc4F)c(=O)c(C(=O)O)cn5C4CC4)CC3)nn2)cc1 [Compound 4d, (E)-7-(4-((1-(4-(3-(4-bromophenyl)acryloyl)phenyl)-1H-1,2,3-triazol-4-yl)methyl)piperazin-1-yl)-1-cyclopropyl-6-fluoro-4-oxo-1,4-dihydroquinoline-3-carboxylic acid]",92.5%,85.9%,34.6%,60.7%,72.5%,72.2%,87.7%,66.4%,71.2%,79.4%,72.8%,101%,90.5%,77.2%,84.7%,83.3%,74.8%,77.6%,88%,112%,activity at 10 µM [21]: 92%; activity at 10 µM [22]: 65.4%; activity at 10 µM [23]: 81.9%; activity at 10 µM [24]: 90.6%; activity at 10 µM [25]: 88.1%; activity at 10 µM [26]: 68.4%; melting point: 247 to 249 °C; activity at 10 µM [28]: 77.4%
